From patent US9066517B2, “Pest control agents for honeybee parasitic pests, and pest control method for honeybee parasitic pests using the pest control agents” (MEIJI SEIKA PHARMA CO., LTD., priority 2013, dated 2015)

Experiments:
Format in all cases: in vivo
Apis mellifera [1] = test: Test Example 2: mortality of honeybees after dipping the abdomens; details: rate 10 ppm, abdomens dipped into acetone solution, adult Apis mellifera
Excerpt: (§1) After anesthesized with carbonic acid gas, adults of Apis mellifera collected from a hive were grouped in test cages such that there were 10 to 20 heads per cage. Thereafter, the Apis mellifera were subjected to a chemical treatment by dipping the abdomens into an acetone solution of the compound according to the present invention at predetermined concentrations. After the Apis mellifera air-dried, the recovery of the Apis mellifera from the anesthesia was confirmed. Then, the cages were lidded to leave the Apis mellifera to stand in a thermostatic chamber under dark at 25° C. Note that 50% sucrose water absorbed to absorbent cotton was provided as a bait during the test period.
(§2) The number of Apis mellifera survived at 72 hours after the chemical treatment as well as the numbers of Varroa destructor parasitizing the Apis mellifera before the chemical treatment and at 72 hours after the chemical treatment were examined. The mortality and the parasitism rate were calculated by the following equations. The test was conducted in duplicate. Mortality(%)={((100−survival rate in chemical treated plot)−(100−survival rate in acetone treated plot))/(100−mortalityin acetone treated plot)}×100 Parasitism rate(%)=(number of heads of honeybees parasitized by Varroa destructor/number of honeybees survived)×100

Varroa destructor [2] = test: Test Example 2: pest control test of Varroa destructor, parasitism rate; details: for Parasitism rate before treatment (%): rate 10 ppm group, before chemical treatment (baseline); for Parasitism rate at 72 hours after treatment (%) / Change in parasitism rate (%)*: rate 10 ppm; for Parasitism rate at 72 hours after treatment (%): abdomens dipped; for Change in parasitism rate (%)*: {100 − (parasitism rate at 72 hours after treatment/parasitism rate before treatment) × 100}
Excerpt: as §1, §2

Apis mellifera [3] = test: Test Example 1: mortality of honeybees after topical application (micro applicator); details: acetone solution applied to abdomens of adult Apis mellifera infected with Varroa destructor, 48 hours after treatment
Experimental: (§3) After anesthesized with carbonic acid gas, adults of Apis mellifera infected with Varroa destructor were subjected to a chemical treatment by applying the abdomens with an acetone solution of the compound according to the present invention at predetermined concentrations using a micro applicator. After the treatment, Apis mellifera were transferred into a plastic case and left to stand in a thermostatic chamber under dark at 25° C. During the test period, 50% sucrose water absorbed to absorbent cotton was provided as a bait.
(§4) Forty eight hours after the chemical treatment, the number of Apis mellifera survived and the number of parasitic Varroa destructor were examined. The mortality of the honeybees and the preventive value against Varroa destructor were calculated by the following equations. Mortality(%)={((100−survival rate in chemical treated plot)−(100−survival rate in acetone treated plot))/(100−mortality in acetone treated plot)}×100 Preventive value={(parasitism rate in untreated plot−parasitism rate in chemical treated plot)/(parasitism rate in untreated plot)}×100

Varroa destructor [4] = test: Test Example 1: pest control test of Varroa destructor, preventive value; details: application dose 10 μg, Varroa destructor on adult Apis mellifera, 48 hours after treatment
Experimental: as §3, §4

Row | Compound | Mortality at 72 hours after treatment (%) (Apis mellifera [1]) | Parasitism rate before treatment (%) (Varroa destructor [2]) | Parasitism rate at 72 hours after treatment (%) (Varroa destructor [2]) | Change in parasitism rate (%)* (Varroa destructor [2]) | Mortality (%) (Apis mellifera [3]; application dose 10 μg) | Preventive value (Varroa destructor [4]) | Mortality (%) (Apis mellifera [3]; application dose 5 μg)
1 | FC(F)(F)C(=S)N=c1ccccn1Cc1ccc(Cl)nc1 [Compound 1-20, N-[1-((6-chloropyridin-3-yl)methyl)pyridin-2(1H)-ylidene]-2,2,2-trifluoroethanethioamide] | 0% | 51% | 23% | −55% | – | – | –
2 | O=C(N=c1ccccn1Cc1ccc(Cl)nc1)C(F)(F)F [Compound P212, N-[1-((6-chloropyridin-3-yl)methyl)pyridin-2(1H)-ylidene]-2,2,2-trifluoroacetamide] | 0% | 17% | 10% | −41% | 0% | 100 | –
3 | CC(C)[C@H](Nc1ccc(C(F)(F)F)cc1Cl)C(=O)OC(C#N)c1cccc(Oc2ccccc2)c1 (some centres unmarked) [Fluvalinate, reference compound] | – | – | – | – | – | – | 64%
